pIC50: −log10 of the molar value. Counter-ions that a name gives are not always drawn.
How the values were obtained:
[1] = test system: IL-2 release from stimulated Jurkat cells; test: Human IL-2 Release Phenotypic Assay (Assay 3); format: cell-based; details: Jurkat cells (clone E6-1), 200 ng/mL PMA + 300 ng/mL ionomycin, IL-2 by ELISA
In short: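 Jurkat E6-1 cells in RPMI1640/10% FBS were seeded at 50 000 cells/well and incubated overnight at 37° C. Half-log compound dilutions (0.5% final DMSO) were added for 30 min, then cells were stimulated with 200 ng/mL PMA + 300 ng/mL ionomycin for 48 h. IC50 came from a 4-parameter non-linear regression fit.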

[2] = molecular target: MALT1-GS-Ub (6-His-hMALT-1 residues 339-715 fused to ubiquitin) (Homo sapiens, UniProt Q9UDY8); test: biochemical;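 note: in vitro MALT1 protease assay: enzyme preincubated with compound 30 min at room temperature, then cleavage of fluorogenic Ac-LVSR-AMC substrate (100 µM) followed by fluorescence every 15 min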
MALT1-GS-Ub (6-His-hMALT-1 residues 339-715 fused to ubiquitin), sequence (Q9UDY8 with tags, fused parts or gaps limits assumed): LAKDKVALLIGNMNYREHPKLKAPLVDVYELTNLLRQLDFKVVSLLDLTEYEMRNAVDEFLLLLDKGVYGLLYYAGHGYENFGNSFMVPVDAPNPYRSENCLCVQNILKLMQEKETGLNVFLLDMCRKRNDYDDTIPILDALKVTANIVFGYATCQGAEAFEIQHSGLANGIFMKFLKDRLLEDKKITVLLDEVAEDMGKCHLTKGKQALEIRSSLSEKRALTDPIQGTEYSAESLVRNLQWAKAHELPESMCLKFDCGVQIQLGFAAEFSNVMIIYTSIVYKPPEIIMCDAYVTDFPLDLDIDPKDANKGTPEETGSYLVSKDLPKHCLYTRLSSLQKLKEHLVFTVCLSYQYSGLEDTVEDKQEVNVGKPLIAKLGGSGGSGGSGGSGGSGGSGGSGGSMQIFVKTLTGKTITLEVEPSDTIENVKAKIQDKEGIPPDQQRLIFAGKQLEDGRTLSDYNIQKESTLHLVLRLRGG
Procedure: MALT1 protease activity was assessed in vitro by measuring the cleavage of a fluorogenic tetrapeptide substrate.
A protein (MALT1-GS-Ub) comprising 6-His-hMALT-1 (residues 339-715), fused to ubiquitin with an 8×GGS linker, was expressed in E. coli, and purified using chitin resin to remove contaminants followed by affinity chromatography purification and size-exclusion chromatography, according to standard protocols.
Briefly, MALT1-GS-Ub (300-600 nM) was incubated with substrate (Ac-LVSR-AMC, 100 μM) in reaction buffer comprising 50 mM HEPES (pH7.0), 25 mM KCl, 0.1% (v/v) CHAPS and 1 mM TCEP.
Test compounds dissolved in DMSO were dispensed into assay plates (384-well, black, shallow ProxiPlates). 7 μl enzyme solution was added and incubated at room temperature for 30 minutes to allow compound binding to occur. 2 μl substrate solution was then added and the fluorescence (excitation 360 nm, emission 460 nm) read every 15 minutes using a suitable plate reader. Final assay DMSO concentration was 1%. […] IC50 values were calculated using GraphPad Prism using a 4-parameter non-linear regression curve fit.

FL hMALT1 enzyme = molecular target: T1, FL hMALT1 enzyme (Homo sapiens, UniProt Q9UDY8); test: biochemical;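 note: Cell-free protease assay: enzyme preincubated with compound 30 min at room temperature, then cleavage of fluorogenic Ac-LVSR-AMC substrate (100 µM) tracked by fluorescence (ex 360/em 460 nm)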
T1 sequence (Q9UDY8 1-824): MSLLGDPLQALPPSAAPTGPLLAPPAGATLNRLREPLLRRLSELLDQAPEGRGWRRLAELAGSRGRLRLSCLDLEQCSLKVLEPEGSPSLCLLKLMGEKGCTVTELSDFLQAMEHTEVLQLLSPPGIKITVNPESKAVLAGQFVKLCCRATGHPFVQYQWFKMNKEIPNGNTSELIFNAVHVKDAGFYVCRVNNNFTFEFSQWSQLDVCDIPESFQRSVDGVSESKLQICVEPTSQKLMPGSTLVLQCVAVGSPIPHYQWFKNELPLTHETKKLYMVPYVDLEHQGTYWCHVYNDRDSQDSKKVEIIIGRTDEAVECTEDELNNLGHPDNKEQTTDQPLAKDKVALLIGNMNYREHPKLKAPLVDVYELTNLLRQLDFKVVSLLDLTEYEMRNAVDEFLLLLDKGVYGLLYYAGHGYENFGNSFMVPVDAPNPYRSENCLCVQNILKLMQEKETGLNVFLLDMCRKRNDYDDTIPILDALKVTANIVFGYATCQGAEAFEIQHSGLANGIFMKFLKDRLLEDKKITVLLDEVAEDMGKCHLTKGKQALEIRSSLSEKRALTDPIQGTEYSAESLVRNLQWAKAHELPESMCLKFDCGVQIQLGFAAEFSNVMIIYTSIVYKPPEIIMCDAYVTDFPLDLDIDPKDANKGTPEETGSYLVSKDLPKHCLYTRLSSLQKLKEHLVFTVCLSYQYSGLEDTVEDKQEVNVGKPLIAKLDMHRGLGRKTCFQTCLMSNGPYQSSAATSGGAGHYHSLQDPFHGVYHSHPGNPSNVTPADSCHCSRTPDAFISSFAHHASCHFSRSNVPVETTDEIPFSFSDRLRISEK

| SMILES | pIC50 ([1]; 48 hours) | pIC50 [2] | pIC50 (FL hMALT1 enzyme) | pIC50 ([1]; Homo sapiens, Jurkat, 48 h) |
| --- | --- | --- | --- | --- |
| CC(=O)N1CC(OC(=O)N(C)[C@@H](c2ccc(NC3Cc4ccccc4C3(C)C)cc2)C(F)(F)F)C1 (single isomer, unassigned) [Example 57] | 5.43 | 6.80 | 7.04 | – |
| CNS(=O)(=O)CCC(=O)N(C)[C@@H](c1ccc(NC2Cc3ccccc3C2(C)C)cc1)C(F)(F)F (single isomer, unassigned) [Example 62] | 5.67 | 6.77 | – | – |
| CN(C(=O)C1CCS(=O)(=O)CC1)[C@@H](c1ccc(NC2Cc3ccc(Cl)cc3C2)cc1)C(F)(F)F (single isomer, unassigned) [Example 55] | 5.34 | 6.28 | 6.66 | – |
| COC1c2ccccc2CC1Nc1ccc([C@H](N(C)C(=O)C2CCS(=O)(=O)CC2)C(F)(F)F)cc1 (single isomer, unassigned) [Example 10] | – | 6.27 | 6.92 | 5.81 |
| CC1(C)c2ccccc2CC1Nc1ccc([C@H](NC(=O)C2CCS(=O)(=O)CC2)C(F)(F)F)cc1 (single isomer, unassigned) [Example 81] | – | 5.84 | 6.10 | 5.41 |
| CNS(=O)(=O)CCC(=O)N(C)[C@@H](c1ccc(NC2Cc3ccccc3C2(C)C)cc1)C(F)(F)F (single isomer, unassigned) [Example 61] | 6.08 | 6.74 | – | – |
| CN(C(=O)CN1CC(=O)NC1=O)[C@@H](c1ccc(NC2Cc3ccccc3C2(C)C)cc1)C(F)(F)F (single isomer, unassigned) [Example 66] | 6.23 | 6.66 | 7.70 | – |
| CN(C(=O)C1CCS(=O)(=O)CC1)[C@@H](c1ccc(NC2Cc3cc(Cl)ccc3C2(C)C)cc1)C(F)(F)F (single isomer, unassigned) [Example 153] | 6.92 | 6.72 | 7.17 | – |
| CC(=O)N1CC(OC(=O)N(C)[C@@H](c2ccc(NC3Cc4ccccc4C3(C)C)cc2)C(F)(F)F)C1 (single isomer, unassigned) [Example 58] | 5.99 | 6.72 | 7.42 | – |
| CN(C(=O)CCC(=O)O)[C@@H](c1ccc(NC2Cc3ccccc3C2(C)C)cc1)C(F)(F)F (single isomer, unassigned) [Example 53] | 5.14 | 6.77 | – | – |
| CC(=O)NCCC(=O)N(C)[C@@H](c1ccc(NC2Cc3ccccc3C2(C)C)cc1)C(F)(F)F (single isomer, unassigned) [Example 24] | 6.06 | 6.80 | 7.05 | – |
| COc1ccc2c(c1)CC(Nc1ccc([C@H](N(C)C(=O)C3CCS(=O)(=O)CC3)C(F)(F)F)cc1)C2 (single isomer, unassigned) [Example 54] | – | 6.48 | – | 5.68 |
| C[C@H](c1ccc(NC2Cc3ccccc3C2(C)C)cc1)N(C)C(=O)C1CCS(=O)(=O)CC1 (single isomer, unassigned) [Example 63] | – | 6.41 | 6.70 | 5.59 |
| CNS(=O)(=O)CCCC(=O)N(C)[C@@H](c1ccc(NC2Cc3ccccc3C2(C)C)cc1)C(F)(F)F (single isomer, unassigned) [Example 64] | 6.54 | 6.82 | 7.92 | – |
| CN(C(=O)C1CCS(=O)(=O)CC1)[C@@H](c1ccc(NC2Cc3ccccc3C2)cn1)C(F)(F)F (single isomer, unassigned) [Example 71] | – | 6.48 | – | 5.58 |
| CN(C(=O)CCCC(=O)O)[C@@H](c1ccc(NC2Cc3ccccc3C2(C)C)cc1)C(F)(F)F (single isomer, unassigned) [Example 50] | 5.53 | 6.92 | – | – |
| CN(C(=O)CCCC(=O)O)[C@@H](c1ccc(NC2Cc3ccccc3C2(C)C)cc1)C(F)(F)F (single isomer, unassigned) [Example 49] | – | 6.59 | – | 5.33 |
| CN(C(=O)c1cc[nH]c(=O)c1)C(c1ccc(NC2Cc3ccccc3C2(C)C)cn1)C(F)(F)F (single isomer, unassigned) [Example 97, N-(1-(5-((1,1-Dimethyl-2,3-dihydro-1H-inden-2-yl)amino)pyridin-2-yl)-2,2,2-trifluoroethyl)-N-methyl-2-oxo-1,2-dihydropyridine-4-carboxamide] | – | 4.80 | < 5.52 | – |
| CN(C(=O)CCC(=O)O)[C@@H](c1ccc(NC2Cc3ccccc3C2(C)C)cc1)C(F)(F)F (single isomer, unassigned) [Example 52] | – | 6.59 | – | 5.02 |

The remaining lines, values ahead:

| pIC50 ([1]; 48 hours) | pIC50 [2] | pIC50 (FL hMALT1 enzyme) | pIC50 ([1]; Homo sapiens, Jurkat, 48 h) | SMILES |
| --- | --- | --- | --- | --- |
| 5.97 | 6.41 | 6.48 | – | CN(C(=O)N1CCC(O)CC1)[C@@H](c1ccc(NC2Cc3ccccc3C2(C)C)cc1)C(F)(F)F (single isomer, unassigned) [Example 23] |
| 6.28 | 6.48 | 6.92 | – | CN(C(=O)C1CCOCC1)[C@@H](c1ccc(NC2Cc3ccccc3C2(C)C)cc1)C(F)(F)F (single isomer, unassigned) [Example 18] |
| – | 6.66 | 7.72 | 5.98 | CC(=O)N1CC(C)(C(=O)N(C)[C@@H](c2ccc(NC3Cc4ccccc4C3(C)C)cc2)C(F)(F)F)C1 (single isomer, unassigned) [Example 41] |
| 5.44 | 6.62 | 6.77 | – | CC(=O)NCC(=O)N(C)[C@@H](c1ccc(NC2Cc3ccccc3C2(C)C)cc1)C(F)(F)F (single isomer, unassigned) [Example 39] |
| – | 6.77 | 7.07 | 5.30 | CN(C(=O)CCO)[C@@H](c1ccc(NC2Cc3ccccc3C2(C)C)cc1)C(F)(F)F (single isomer, unassigned) [Example 34] |
| 6.04 | 6.51 | 7.17 | – | CN(C(=O)C1CCS(=O)(=O)CC1)[C@@H](c1ccc(NC2Cc3ccccc3C2(C)C)cn1)C(F)(F)F (single isomer, unassigned) [Example 77] |
| 6.92 | 6.72 | 7.82 | – | CN(C(=O)C1CN(S(C)(=O)=O)C1)[C@@H](c1ccc(NC2Cc3ccccc3C2(C)C)cc1)C(F)(F)F (single isomer, unassigned) [Example 68] |
| 6.81 | 6.55 | 7.74 | – | CN(C(=O)C1CCS(=O)(=O)CC1)[C@@H](c1ccc(NC2Cc3ccccc3C2(C)C)cn1)C(F)(F)F (single isomer, unassigned) [Example 78] |
| – | 6.57 | 6.66 | 6.28 | CN(C(=O)C1CNC1)[C@@H](c1ccc(NC2Cc3ccccc3C2(C)C)cc1)C(F)(F)F (stereo partly drawn) [Example 72, N-((1S)-1-(4-((1,1-Dimethyl-2,3-dihydro-1H-inden-2-yl)amino)phenyl)-2,2,2-trifluoroethyl)-N-methylazetidine-3-carboxamide Hydrochloride] |
| – | 4.80 | < 5.52 | – | CN(C(=O)C1CNC1)C(c1ccc(NC2Cc3ccccc3C2(C)C)cn1)C(F)(F)F (single isomer, unassigned) [Example 83, N-(1-(5-((1,1-Dimethyl-2,3-dihydro-1H-inden-2-yl)amino)pyridin-2-yl)-2,2,2-trifluoroethyl)-N-methylazetidine-3-carboxamide] |
| – | 5.16 | < 5.52 | – | CN(C(=O)C1CNC1)C(c1ccc(NC2Cc3ccccc3C2(C)C)nc1)C(F)(F)F (single isomer, unassigned) [Example 89, N-(1-(6-((1,1-Dimethyl-2,3-dihydro-1H-inden-2-yl)amino)pyridin-3-yl)-2,2,2-trifluoroethyl)-N-methylazetidine-3-carboxamide] |
| – | 4.92 | < 5.52 | – | CN1CC(C(=O)N(C)C(c2ccc(NC3Cc4ccccc4C3(C)C)cn2)C(F)(F)F)C1 (single isomer, unassigned) [Example 91, N-(1-(5-((1,1-Dimethyl-2,3-dihydro-1H-inden-2-yl)amino)pyridin-2-yl)-2,2,2-trifluoroethyl)-N,1-dimethylazetidine-3-carboxamide] |
| – | 4.77 | < 5.52 | – | CN1CC(C(=O)N(C)C(c2ccc(NC3Cc4ccccc4C3(C)C)nc2)C(F)(F)F)C1 (single isomer, unassigned) [Example 94, N-(1-(6-((1,1-Dimethyl-2,3-dihydro-1H-inden-2-yl)amino)pyridin-3-yl)-2,2,2-trifluoroethyl)-N,1-dimethylazetidine-3-carboxamide] |

From US20260184687A1, “DIHYDROINDENE DERIVATIVES AS MALT1 INHIBITORS” (C4X Discovery Limited, priority 2022, published 2026)
